Assay results taken from publication PMC5029806, “Streptococcus pneumoniae TIGR4 Flavodoxin: Structural and Biophysical Characterization of a Novel Drug Target” (PLoS ONE, 2016).

Target: T1, Streptococcus pneumoniae TIGR4 flavodoxin (SpFld) (Streptococcus pneumoniae, UniProt A0A0H2UQC6)
T1 construct: gene fld; apo form for ITC, SeMet holo form for the crystal structure
Assay: ITC at […]°C ([…] NaCl, […] MES, pH […]); crystal structure of the FMN complex; thermal stabilization by CD, fluorescence and DSC
Assay type: binding

T1 sequence (A0A0H2UQC6 entry or part of it): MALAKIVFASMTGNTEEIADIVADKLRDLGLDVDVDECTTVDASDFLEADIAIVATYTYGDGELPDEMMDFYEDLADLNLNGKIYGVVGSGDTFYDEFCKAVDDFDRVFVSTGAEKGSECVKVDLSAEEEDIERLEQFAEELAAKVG

## Cc1cc2nc3c(=O)[nH]c(=O)nc-3n(C[C@H](O)[C@H](O)[C@H](O)COP(=O)(O)O)c2cc1C [FMN]
  Kd: 83 ± 9 nM
